In patent US11006631B2, “Substituted pyrimidinyloxy pyridine derivatives as herbicides” (FMC Corporation, priority 2015, dated 2021):

What was measured:
Format in all cases: in vivo
[1] = tested on: barnyardgrass (Echinochloa crus-galli); assay: Test A preemergence, barnyardgrass; conditions: 0 to 100 scale
How it was run: (§1)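 Greenhouse pot test, loam + sand. Preemergence = soil spray at sowing; postemergence = foliar spray, 1–2 leaf stage, 2–10 cm tall. ~10 d, then visual injury vs untreated, 0–100.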

[2] = tested on: corn (Zea mays); assay: Test A postemergence, corn; conditions: 0 to 100 scale
How it was run: as §1

[3] = tested on: barnyardgrass (Echinochloa crus-galli); assay: Test B flooded paddy test, barnyardgrass; conditions: Flood, 250 g ai/ha; scale of 0 to 100
How it was run: (§2)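 2-leaf plants; flood 3 cm over soil; compound into paddy water; depth held. Greenhouse 13–15 d. Visual rating vs controls, 0 (no effect) to 100 (complete control); dash = not tested.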

[4] = tested on: morningglory (Ipomoea spp.); assay: Test A postemergence, morningglory; conditions: 0 to 100 scale
Source text: (§3) Seeds of plant species selected from bamyardgrass (Echinochloa crus-galli), kochia (Kochia scoparia), ragweed (common ragweed, Ambrosia elatior), ryegrass, Italian (Italian ryegrass, Lolium multiflorum), foxtail, giant (giant foxtail, Setaria faberii), pigweed (Amaranthus retroflexus), crabgrass, large (large crabgrass, Digitaria sanguinalis), momingglory (Ipomoea spp.), velvetleaf (Abutilon theophrasti), wheat (Triticum aestivum), and corn (Zea mays) were planted into a blend of loam soil and sand and treated preemergence with a directed soil spray using test chemicals formulated in a non-phytotoxic solvent mixture which included a surfactant. At the same time, plants selected from these crop and weed species and also blackgrass (Alopecurus myosuroides), and galium (catchweed bedstraw, Galium aparine) were planted in pots containing the same blend of loam soil and sand and treated with postemergence applications of test chemicals formulated in the same manner. Plants ranged in height from 2 to 10 cm and were in the one- to two-leaf stage for the postemergence treatment. Treated plants and untreated controls were maintained in a greenhouse for approximately 10 days, after which time all treated plants were compared to untreated controls and visually evaluated for injury. Plant response ratings, summarized in Table A, are based on a 0 to 100 scale where 0 is no effect and 100 is complete control. A dash (-) response means no test result.

[5] = tested on: pigweed (Amaranthus retroflexus); assay: Test A preemergence, pigweed; conditions: 0 to 100 scale
How it was run: as §1

[6] = tested on: wheat (Triticum aestivum); assay: Test A preemergence, wheat; conditions: 0 to 100 scale
Source text: as §3

[7] = tested on: pigweed (Amaranthus retroflexus); assay: Test A postemergence, pigweed; conditions: 0 to 100 scale
How it was run: as §1

[8] = tested on: morningglory (Ipomoea spp.); assay: Test A preemergence, morningglory; conditions: 0 to 100 scale
Source text: as §3

[9] = tested on: crabgrass, large (large crabgrass, Digitaria sanguinalis); assay: Test A postemergence, crabgrass, large; conditions: 0 to 100 scale
Source text: as §3

[10] = tested on: sedge, umbrella (small-flower umbrella sedge, Cyperus difformis); assay: Test B flooded paddy test, sedge, umbrella; conditions: Flood, 250 g ai/ha; scale of 0 to 100
How it was run: as §2

[11] = tested on: foxtail, giant (giant foxtail, Setaria faberii); assay: Test A postemergence, foxtail, giant; conditions: 0 to 100 scale
How it was run: as §1

[12] = tested on: corn (Zea mays); assay: Test A preemergence, corn; conditions: 0 to 100 scale
Source text: as §3

[13] = tested on: rice (Oryza sativa); assay: Test B flooded paddy test, rice; conditions: Flood, 250 g ai/ha; scale of 0 to 100
How it was run: as §2

[14] = tested on: velvetleaf (Abutilon theophrasti); assay: Test A postemergence, velvetleaf; conditions: 0 to 100 scale
Source text: as §3

[15] = tested on: wheat (Triticum aestivum); assay: Test A postemergence, wheat; conditions: 0 to 100 scale
How it was run: as §1

[16] = tested on: barnyardgrass (Echinochloa crus-galli); assay: Test A postemergence, barnyardgrass; conditions: 0 to 100 scale
How it was run: as §1

[17] = tested on: crabgrass, large (large crabgrass, Digitaria sanguinalis); assay: Test A preemergence, crabgrass, large; conditions: 0 to 100 scale
Source text: as §3

[18] = tested on: foxtail, giant (giant foxtail, Setaria faberii); assay: Test A preemergence, foxtail, giant; conditions: 0 to 100 scale
How it was run: as §1

[19] = tested on: velvetleaf (Abutilon theophrasti); assay: Test A preemergence, velvetleaf; conditions: 0 to 100 scale
Source text: as §3

[20] = tested on: ducksalad (Heteranthera limosa); assay: Test B flooded paddy test, ducksalad; conditions: Flood, 250 g ai/ha; scale of 0 to 100
How it was run: as §2

SMILES	Plant response rating, Barnyardgrass ([1]; 125 g ai/ha)	Plant response rating, Barnyardgrass ([1]; 500 g ai/ha)	Plant response rating, Corn ([2]; 125 g ai/ha)	Plant response rating, Corn ([2]; 500 g ai/ha)	Plant response rating, Barnyardgrass [3]	Plant response rating, Morningglory ([4]; 125 g ai/ha)	Plant response rating, Morningglory ([4]; 500 g ai/ha)	Plant response rating, Pigweed ([5]; 125 g ai/ha)	Plant response rating, Pigweed ([5]; 500 g ai/ha)	Plant response rating, Wheat ([6]; 125 g ai/ha)	Plant response rating, Wheat ([6]; 500 g ai/ha)	Plant response rating, Pigweed ([7]; 125 g ai/ha)	Plant response rating, Pigweed ([7]; 500 g ai/ha)	Plant response rating, Morningglory ([8]; 500 g ai/ha)	Plant response rating, Crabgrass, Large ([9]; 125 g ai/ha)	Plant response rating, Crabgrass, Large ([9]; 500 g ai/ha)	Plant response rating, Sedge, Umbrella [10]	Plant response rating, Foxtail, Giant ([11]; 125 g ai/ha)	Plant response rating, Foxtail, Giant ([11]; 500 g ai/ha)	Plant response rating, Corn ([12]; 125 g ai/ha)	other results
Clc1cnc(Oc2cccnc2-n2cc(Br)cn2)nc1 [Compound 1, 2-[[2-(4-bromo-1H-pyrazol-1-yl)-3-pyridinyl]oxy]-5-chloropyrimidine]	10	50	10	20	0	10	80	50	90	0	10	90	100	0	10	50	50	10	30	0	Plant response rating, Corn ([12]; 500 g ai/ha): 0; Plant response rating, Rice [13]: 0; Plant response rating, Velvetleaf ([14]; 125 g ai/ha): 20; Plant response rating, Velvetleaf ([14]; 500 g ai/ha): 50; Plant response rating, Wheat ([15]; 125 g ai/ha): 10; Plant response rating, Wheat ([15]; 500 g ai/ha): 20; Plant response rating, Barnyardgrass ([16]; 125 g ai/ha): 0; Plant response rating, Barnyardgrass ([16]; 500 g ai/ha): 10; Plant response rating, Crabgrass, Large ([17]; 125 g ai/ha): 40; Plant response rating, Crabgrass, Large ([17]; 500 g ai/ha): 100; Plant response rating, Foxtail, Giant ([18]; 125 g ai/ha): 20; Plant response rating, Foxtail, Giant ([18]; 500 g ai/ha): 80; Plant response rating, Velvetleaf ([19]; 125 g ai/ha): 10; Plant response rating, Velvetleaf ([19]; 500 g ai/ha): 30; Plant response rating, Ducksalad [20]: 60
Cc1ccc(Oc2ncc(Cl)cn2)c(-n2cc(Br)cn2)n1 [Compound 10]	0	0	0	0	0	0	10	0	40	0	0	10	50	10	0	10	0	0	0	0	Plant response rating, Morningglory ([8]; 125 g ai/ha): 0; Plant response rating, Corn ([12]; 500 g ai/ha): 0; Plant response rating, Rice [13]: 0; Plant response rating, Velvetleaf ([14]; 125 g ai/ha): 50; Plant response rating, Velvetleaf ([14]; 500 g ai/ha): 80; Plant response rating, Wheat ([15]; 125 g ai/ha): 0; Plant response rating, Wheat ([15]; 500 g ai/ha): 0; Plant response rating, Barnyardgrass ([16]; 125 g ai/ha): 0; Plant response rating, Barnyardgrass ([16]; 500 g ai/ha): 0; Plant response rating, Crabgrass, Large ([17]; 125 g ai/ha): 0; Plant response rating, Crabgrass, Large ([17]; 500 g ai/ha): 50; Plant response rating, Foxtail, Giant ([18]; 125 g ai/ha): 0; Plant response rating, Foxtail, Giant ([18]; 500 g ai/ha): 20; Plant response rating, Velvetleaf ([19]; 125 g ai/ha): 0; Plant response rating, Velvetleaf ([19]; 500 g ai/ha): 20; Plant response rating, Ducksalad [20]: 0
